Assay results: patent US20100204224A1, “AZACYCLIC COMPOUNDS AS INHIBITORS OF SENSORY NEURONE SPECIFIC SODIUM CHANNELS” (priority 2005, published 2010)
Where a name gives a salt, the structure may show the parent alone. Read-outs that look alike come from different tables or passages of the source.

Molecular target: T1, human Nav1.8 (hNav1.8) ion channel (Homo sapiens, UniProt Q9Y5Y9)
T1 construct: expressed in transfected cells
Test: Inhibition of human Nav1.8 stably expressed in SH-SY-5Y cells (membrane potential dye fluorescence assay)
Type: cell-based
Details: FLIPR membrane potential dye, 10 μM pyrethroid, 250 nM TTX, test concentration range 100 μM-0.05 μM
Protocol: Inhibition of Human Nav1.8 stably expressed in SH-SY-5Y Cells
A SH-SY-5Y neuroblastoma cell line stably expressing the human Nav1.8 (hNav1.8) ion channel was constructed. This cell line has been used to develop a medium to high throughput assay for determining the ability of test compounds to inhibit membrane depolarisation mediated via the hNav1.8 channel.
SH-SY-5Y hNav1.8 are grown in adherent monolayer culture using 50:50 Ham's F-12/EMEM tissue culture medium supplemented with 15% (v/v) foetal bovine serum; 2 mM L-glutamine, 1% NEAR and 600 μg·ml^−1 Geneticin sulphate. Cells are removed from the tissue culture flask using trypsin/EDTA and re-plated into black walled, clear bottom 96-well assay plates at 50,000 cells·well^−1 24 hours prior to assay.
On the day of assay the cell assay plates are washed to remove cell culture medium using a sodium free assay buffer (145 mM tetramethyl ammonium chloride; 2 mM calcium chloride; 0.8 mM magnesium chloride hexahydrate; 10 mM HEPES; 10 mM glucose; 5 mM potassium chloride, pH 7.4). Fluorescent membrane potential dye solution (FLIPR™ membrane potential dye, Molecular Devices Corporation), containing 10 μM of a pyrethroid to prevent channel inactivation and 250 nM tetrodotoxin (TTX) to reduce interference from TTX-sensitive sodium channels present in the cell line. Test compound, initially dissolved in dimethyl sulfoxide but further diluted in sodium free buffer, is added to achieve the final test concentration range of 100 μM-0.05 μM.
Cell plates are incubated for 30 minutes at room temperature to allow equilibration of dye and test compound. Plates are then transferred to a fluorescence plate reader for fluorescence measurement using an excitation wavelength of 530 nm whilst measuring fluorescence emission at 565 nm. Baseline fluorescence levels are first determined before the addition of a sodium containing buffer (220 mM sodium chloride; 2 mM calcium chloride; 0.8 mM magnesium chloride hexahydrate; 10 mM HEPES; 10 mM glucose; 5 mM potassium chloride. pH 7.4) to cause membrane depolarisation in those cells where channel block has not been effected (final sodium concentration=72.5 mM). Membrane depolarisation is registered by an increase in fluorescence emission at 565 nm.
The change in fluorescence seen in each test well upon the addition of sodium containing buffer is calculated relative to the baseline fluorescence for that well. This figure is then used for calculating the IC50 for each test compound.

[1] = SH-SY-5Y hNav1.8 cells, read-out: hNav1.8 IC50
[2] = hNav1.8 IC50, SH-SY-5Y hNav1.8 cells

T1 sequence (Q9Y5Y9 whole entry): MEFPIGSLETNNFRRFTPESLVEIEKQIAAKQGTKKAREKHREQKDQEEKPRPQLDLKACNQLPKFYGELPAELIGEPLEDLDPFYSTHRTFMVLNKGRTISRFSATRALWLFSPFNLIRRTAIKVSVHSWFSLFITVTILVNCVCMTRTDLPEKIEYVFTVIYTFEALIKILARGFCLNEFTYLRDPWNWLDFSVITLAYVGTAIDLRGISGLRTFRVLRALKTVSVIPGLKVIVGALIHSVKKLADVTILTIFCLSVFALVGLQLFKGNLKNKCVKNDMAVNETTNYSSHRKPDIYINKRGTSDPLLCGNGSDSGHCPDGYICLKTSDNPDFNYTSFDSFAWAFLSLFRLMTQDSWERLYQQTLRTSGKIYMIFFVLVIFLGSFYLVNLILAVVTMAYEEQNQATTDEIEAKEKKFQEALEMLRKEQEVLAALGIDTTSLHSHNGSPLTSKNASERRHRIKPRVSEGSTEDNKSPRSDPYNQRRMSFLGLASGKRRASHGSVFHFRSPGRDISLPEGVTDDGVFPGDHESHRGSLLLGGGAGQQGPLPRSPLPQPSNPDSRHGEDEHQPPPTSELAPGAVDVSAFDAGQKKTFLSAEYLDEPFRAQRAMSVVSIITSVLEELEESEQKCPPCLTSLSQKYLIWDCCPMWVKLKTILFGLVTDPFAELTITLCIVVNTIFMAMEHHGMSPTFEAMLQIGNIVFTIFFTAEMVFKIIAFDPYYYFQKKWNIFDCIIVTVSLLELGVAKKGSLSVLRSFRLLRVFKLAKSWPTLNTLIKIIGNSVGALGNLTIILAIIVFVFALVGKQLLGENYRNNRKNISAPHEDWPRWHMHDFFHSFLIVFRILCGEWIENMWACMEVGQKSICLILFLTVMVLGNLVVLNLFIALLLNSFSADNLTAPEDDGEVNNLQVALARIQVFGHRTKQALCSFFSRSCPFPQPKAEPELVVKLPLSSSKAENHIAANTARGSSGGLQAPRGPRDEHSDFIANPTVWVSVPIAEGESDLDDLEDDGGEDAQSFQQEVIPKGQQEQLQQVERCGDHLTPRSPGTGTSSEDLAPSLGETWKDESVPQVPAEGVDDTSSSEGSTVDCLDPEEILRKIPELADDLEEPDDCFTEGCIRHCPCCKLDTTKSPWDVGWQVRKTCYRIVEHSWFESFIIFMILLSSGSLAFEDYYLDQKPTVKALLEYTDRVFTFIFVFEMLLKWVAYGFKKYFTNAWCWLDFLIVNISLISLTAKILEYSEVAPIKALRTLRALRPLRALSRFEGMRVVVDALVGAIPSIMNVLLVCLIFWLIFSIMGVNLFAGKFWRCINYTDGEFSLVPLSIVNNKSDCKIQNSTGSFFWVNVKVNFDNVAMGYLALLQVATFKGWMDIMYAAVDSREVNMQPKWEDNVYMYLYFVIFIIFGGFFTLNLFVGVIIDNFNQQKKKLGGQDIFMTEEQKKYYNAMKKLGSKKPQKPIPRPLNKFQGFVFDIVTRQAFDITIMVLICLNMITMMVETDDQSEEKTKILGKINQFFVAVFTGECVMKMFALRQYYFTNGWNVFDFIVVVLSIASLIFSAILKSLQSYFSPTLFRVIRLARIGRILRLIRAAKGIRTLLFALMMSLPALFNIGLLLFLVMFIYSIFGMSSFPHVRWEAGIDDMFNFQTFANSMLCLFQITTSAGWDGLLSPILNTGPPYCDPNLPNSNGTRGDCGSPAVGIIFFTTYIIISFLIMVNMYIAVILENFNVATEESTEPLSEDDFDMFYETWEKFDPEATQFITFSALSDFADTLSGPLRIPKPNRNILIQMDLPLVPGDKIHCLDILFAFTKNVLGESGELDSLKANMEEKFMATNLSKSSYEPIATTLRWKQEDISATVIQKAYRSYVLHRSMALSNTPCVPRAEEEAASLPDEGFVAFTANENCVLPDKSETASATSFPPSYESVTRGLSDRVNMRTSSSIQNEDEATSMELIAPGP

Structure (SMILES)	IC50 [1] [nM]	IC50 [2] [nM]
CC(c1ccccc1Cl)N1CC2CC1CN2C(=O)c1cc2ccccc2[nH]1 (stereo not shown) [Example 149, {5-[1-(2-Chloro-phenyl)-ethyl]-2,5-diaza-bicyclo[2.2.1]hept-2-yl}-(1H-indol-2-yl)-methanone]	5840	
O=C(Nc1ccc(Oc2ccccc2)cc1)N1CCC2(CCN(Cc3ccccc3)C2)C1 (stereo not shown) [Example 88, 7-Benzyl-2,7-diaza-spiro[4.4]nonane-2-carboxylic acid (4-phenoxy-phenyl)-amide]	390	
O=C(NCc1ccc(Oc2ccc(F)cc2)cc1)N1CC2CC1CN2C1Cc2ccc(F)cc2C1 (stereo not shown) [Example 146, 5-(5-Fluoro-indan-2-yl)-2,5-diaza-bicyclo[2.2.1]heptane-2-carboxylic acid 4-(4-fluoro-phenoxy)-benzylamide]	1280	
CC(c1ccccc1Br)N1CC2CC1CN2C(=O)Cc1ccc(Oc2ccc(F)cc2)cc1 (stereo not shown) [Example 154, 1-{5-[1-(2-Bromo-phenyl)-ethyl]-2,5-diaza-bicyclo[2.2.1]hept-2-yl}-2-[4-(4-fluoro-phenoxy)-phenyl]-ethanone]		4310
CC(c1ccccc1Cl)N1CC2CC1CN2C(=O)c1ccc(Oc2ccc(F)cc2)c(F)c1 (single isomer, unassigned) [Example 177, {5-[1-(2-Chloro-phenyl)-ethyl]-2,5-diaza-bicyclo[2.2.1]hept-2-yl}-[3-fluoro-4-(4-fluoro-phenoxy)-phenyl]-methanone]	740	
CC(c1ccccc1C(F)(F)F)N1CC2CC1CN2C(=O)Nc1ccc(Oc2ccccc2)cc1 (single isomer, unassigned) [Example 62, 5-[1-(2-Trifluoromethyl-phenyl)-ethyl]-2,5-diaza-bicyclo[2.2.1]heptane-2-carboxylic acid (4-phenoxy-phenyl)-amide]	17200	
CC(Cc1ccc(F)cc1)N1CC2CC1CN2C(=O)Nc1ccc(C(F)(F)F)cc1 (stereo not shown) [Example 80, 5-[2-(4-Fluoro-phenyl)-1-methyl-ethyl]-2,5-diaza-bicyclo[2.2.1]heptane-2-carboxylic acid (4-trifluoromethyl-phenyl)-amide]	490	
Cc1ccccc1C(C)N1CC2CC1CN2C(=O)Nc1ccc(OCCN2CCCC2=O)cc1 (stereo not shown) [Example 23, 5-(1-o-Tolyl-ethyl)-2,5-diaza-bicyclo[2.2.1]heptane-2-carboxylic acid {4-[2-(2-oxo-pyrrolidin-1-yl)-ethoxy]-phenyl}-amide]	≥ 30000	
O=C(c1ccc(C(F)(F)F)cc1)N1CC2CC1CN2C1CCc2ccccc2C1 (stereo not shown) [Example 137, [5-(1,2,3,4-Tetrahydro-naphthalen-2-yl)-2,5-diaza-bicyclo[2.2.1]hept-2-yl]-(4-trifluoromethyl-phenyl)-methanone]	23200	
Cc1cc(F)ccc1C(C)N1CC2CC1CN2C(=O)Nc1ccc(Oc2ccccc2)cc1 (stereo not shown) [Example 64, 5-[1-(4-Fluoro-2-methyl-phenyl)-ethyl]-2,5-diaza-bicyclo[2.2.1]heptane-2-carboxylic acid (4-phenoxy-phenyl)-amide]	270	
CC(C(C#N)c1ccccc1)N1CC2CC1CN2C(=O)Nc1ccc(C(F)(F)F)cc1 (stereo not shown) [Example 81, 5-(2-Cyano-1-methyl-2-phenyl-ethyl)-2,5-diaza-bicyclo[2.2.1]heptane-2-carboxylic acid (4-trifluoromethyl-phenyl)-amide]	26200	
CC(c1c(F)cccc1Cl)N1CC2CC1CN2C(=O)c1ccc(Oc2ccc(F)cc2)cc1 (stereo not shown) [Example 168, {5-[1-(2-Chloro-6-fluoro-phenyl)-ethyl]-2,5-diaza-bicyclo[2.2.1]hept-2-yl}-[4-(4-fluoro-phenoxy)-phenyl]-methanone]	1700	
O=C(Nc1ccc(C(F)(F)F)cc1)N1CC2CC1CN2C1CCc2cc(F)ccc21 (stereo not shown) [Example 94, 5-(5-Fluoro-indan-1-yl)-2,5-diaza-bicyclo[2.2.1]heptane-2-carboxylic acid (4-trifluoromethyl-phenyl)-amide]	1890	
Cc1ccccc1C(C)N1CC2CC1CN2C(=O)Nc1ccc(OCC2CCCCO2)cc1 (stereo not shown) [Example 25, 5-(1-o-Tolyl-ethyl)-2,5-diaza-bicyclo[2.2.1]heptane-2-carboxylic acid [4-(tetrahydro-pyran-2-ylmethoxy)-phenyl]-amide]	5380	
CC(c1ccccc1Cl)N1CC2CC1CN2C(=O)c1ccc(Oc2cccc(C#N)c2)cc1 (stereo not shown) [Example 173, 3-(4-{5-[1-(2-Chloro-phenyl)-ethyl]-2,5-diaza-bicyclo[2.2.1]heptane-2-carbonyl}-phenoxy)-benzonitrile]	1930	
CC(c1ccc(F)cc1)N1CC2CC1CN2C(=O)Nc1cccc(C(F)(F)F)c1 (stereo not shown) [Example 50, 5-[1-(4-Fluoro-phenyl)-ethyl]-2,5-diaza-bicyclo[2.2.1]heptane-2-carboxylic acid (3-trifluoromethyl-phenyl)-amide]	2620	
O=C(Nc1ccc(Oc2ccccc2)cc1)N1CC2CC1CN2C1CCc2cccc(Cl)c21 (stereo not shown) [Example 141, 5-(7-Chloro-indan-1-yl)-2,5-diaza-bicyclo[2.2.1]heptane-2-carboxylic acid (4-phenoxy-phenyl)-amide]	200	
Cc1ccccc1C(C)N1CC2CC1CN2C(=O)Nc1ccc(Oc2ccc(F)cc2)cc1 (stereo not shown) [Example 87, 5-(1-o-Tolyl-ethyl)-2,5-diaza-bicyclo[2.2.1]heptane-2-carboxylic acid [4-(4-fluoro-phenoxy)-phenyl]-amide methanesulfonate salt]		600
CC(c1ccccn1)N1CC2CC1CN2C(=O)c1ccc(Oc2cccc(C#N)c2)cc1 (stereo not shown) [Example 180, 3-{4-[5-(1-Pyridin-2-yl-ethyl)-2,5-diaza-bicyclo[2.2.1]heptane-2-carbonyl]-phenoxy}-benzonitrile]	4650	
CC(c1c(F)cccc1F)N1CC2CC1CN2C(=O)Nc1ccc(Oc2ccccc2)cc1 (stereo not shown) [Example 10, 5-[1-(2,6-Difluoro-phenyl)-ethyl]-2,5-diaza-bicyclo[2.2.1]heptane-2-carboxylic acid (4-phenoxy-phenyl)-amide]	1100	
O=C(Nc1ccc(Oc2ccc(F)cc2)cc1)N1CC2CN(C3Cc4ccccc4C3)CC2C1 (stereo not shown) [Example 112, 5-Indan-2-yl-hexahydro-pyrrolo[3,4-c]pyrrole-2-carboxylic acid [4-(4-fluoro-phenoxy)-phenyl]-amide]	300	
CC(c1ccc(F)cc1)N1CC2CC1CN2C(=O)Nc1ccc(Oc2ccccc2)cc1 (stereo not shown) [Example 51, 5-[1-(4-Fluoro-phenyl)-ethyl]-2,5-diaza-bicyclo[2.2.1]heptane-2-carboxylic acid (4-phenoxy-phenyl)-amide]	410	
CC(c1ccccc1Cl)N1CC2CC1CN2C(=O)Nc1ccc(Oc2ccc(Cl)cc2)cc1 (stereo not shown) [Example 129, 5-[1-(2-Chloro-phenyl)-ethyl]-2,5-diaza-bicyclo[2.2.1]heptane-2-carboxylic acid [4-(4-chloro-phenoxy)-phenyl]-amide]	3800	
CC(c1ccc(F)cc1Cl)N1CC2CC1CN2C(=O)c1ccc(Oc2ccc(F)cc2)cc1 (stereo not shown) [Example 163, {5-[1-(2-Chloro-4-fluoro-phenyl)-ethyl]-2,5-diaza-bicyclo[2.2.1]hept-2-yl}-[4-(4-fluoro-phenoxy)-phenyl]-methanone]	17700	
Cc1ccccc1C(C)N1CC2CC1CN2C(=O)Nc1ccc(OCCc2ccccn2)cc1 (stereo not shown) [Example 45, 5-(1-o-Tolyl-ethyl)-2,5-diaza-bicyclo[2.2.1]heptane-2-carboxylic acid [4-(2-pyridin-2-yl-ethoxy)-phenyl]-amide]	3270	
CC(c1ccc(Cl)cc1Cl)N1CC2CC1CN2C(=O)Nc1ccc(Oc2ccc(F)cc2)cc1 (stereo not shown) [Example 119, 5-[1-(2,4-Dichloro-phenyl)-ethyl]-2,5-diaza-bicyclo[2.2.1]heptane-2-carboxylic acid [4-(4-fluoro-phenoxy)-phenyl]-amide]	20900	
Cc1ccccc1C(C)N1CC2CC1CN2C(=O)Nc1ccc(Oc2ccccc2)cc1 (stereo not shown) [Example 32, 5-(1-o-Tolyl-ethyl)-2,5-diaza-bicyclo[2.2.1]heptane-2-carboxylic acid (4-phenoxy-phenyl)-amide]	710	
CC(c1ccccc1Cl)N1CC2CC1CN2C(=O)c1ccc(Oc2ccc(F)cc2)c(F)c1 (single isomer, unassigned) [Example 176, {5-[1-(2-Chloro-phenyl)-ethyl]-2,5-diaza-bicyclo[2.2.1]hept-2-yl}-[3-fluoro-4-(4-fluoro-phenoxy)-phenyl]-methanone]	430	
